Data set [1] in a line: Paal-Knorr pyrrole formation between a side-chain 1,4-diketone (DOP1, unmasked from 5-methylfuran in TFA/m-cresol 9:1) and a side-chain hydrazide (Nu2) or aminooxy group (Nu5); crude redissolved in mQ water. To be noted: the molecule shown is the open-chain precursor, pH ~2.5, 5.0 mM.
A short description of data set [2]: Paal-Knorr-like closure of a side-chain 1,4-diketone (DOP, unmasked from 5-substituted furan in TFA/m-cresol 9:1) with a side-chain alkylhydrazine (Nu1), then air oxidation to a pyridazinium staple; crude redissolved in mQ water, pH adjusted to ~7.5. To be noted: the molecule shown is the open-chain precursor, pH ~7.5, 5.0 mM.

SMILES strings stand for the structures.

In data set [1] (40-membered ring), `CC[C@H](C)[C@H](NC(=O)[C@H](CCCNC(=O)CCC(=O)CCC(C)=O)NC(=O)[C@H](CCCNC(=N)N)NC(=O)CNC(=O)[C@H](CCCCN)NC(=O)[C@H](CC(C)C)NC(=O)[C@H](Cc1c[nH]cn1)NC(=O)CNC(=O)[C@@H]1CCCN1C(C)=O)C(=O)NCC(=O)N[C@@H](CC(C)C)C(=O)N[C@@H](Cc1c[nH]c2ccccc12)C(=O)N[C@@H](Cc1ccc(O)cc1)C(=O)N[C@@H](C)C(=O)N[C@@H](CCCNC(=O)CCC(=O)NN)C(=O)N[C@@H](CCCCN)C(=O)N[C@@H](CCC(N)=O)C(=O)NCC(=O)N[C@@H](CCC(N)=O)C(=O)N[C@@H](CCCCN)C(=O)N[C@@H](CC(N)=O)C(=O)N[C@@H](CCCCN)C(N)=O` displayed a ring closure, overall yield of 12.6%. As to `CC[C@H](C)[C@H](NC(=O)[C@H](CCC(=O)O)NC(=O)[C@H](CCCNC(=N)N)NC(=O)CNC(=O)[C@H](CCCCN)NC(=O)[C@H](CC(C)C)NC(=O)[C@H](Cc1c[nH]cn1)NC(=O)CNC(=O)[C@@H]1CCCN1C(C)=O)C(=O)NCC(=O)N[C@@H](CC(C)C)C(=O)N[C@@H](Cc1c[nH]c2ccccc12)C(=O)N[C@@H](Cc1ccc(O)cc1)C(=O)N[C@@H](C)C(=O)N[C@@H](CCCNC(=O)CNN)C(=O)N[C@@H](CCCCN)C(=O)N[C@@H](CCC(N)=O)C(=O)NCC(=O)N[C@@H](CCCNC(=O)CCC(=O)CCC(C)=O)C(=O)N[C@@H](CCCCN)C(=O)N[C@@H](CC(N)=O)C(=O)N[C@@H](CCCCN)C(N)=O`, the ring closure, overall yield in data set [2] (29-membered ring) was found to be 18.2%. The compound `CC[C@H](C)[C@H](NC(=O)[C@H](CCCNC(=O)CCC(=O)CCC(=O)c1ccc(OC)cc1)NC(=O)[C@H](CCCNC(=N)N)NC(=O)CNC(=O)[C@H](CCCCN)NC(=O)[C@H](CC(C)C)NC(=O)[C@H](Cc1c[nH]cn1)NC(=O)CNC(=O)[C@@H]1CCCN1C(C)=O)C(=O)NCC(=O)N[C@@H](CC(C)C)C(=O)N[C@@H](Cc1c[nH]c2ccccc12)C(=O)N[C@@H](Cc1ccc(O)cc1)C(=O)N[C@@H](C)C(=O)N[C@@H](CCCNC(=O)CNN)C(=O)N[C@@H](CCCCN)C(=O)N[C@@H](CCC(N)=O)C(=O)NCC(=O)N[C@@H](CCC(N)=O)C(=O)N[C@@H](CCCCN)C(=O)N[C@@H](CC(N)=O)C(=O)N[C@@H](CCCCN)C(N)=O` had a ring closure, overall yield in data set [2] (38-membered ring) of 17.1%. Take `COc1ccc(C(=O)CCC(=O)CCC(=O)NCCC[C@H](NC(C)=O)C(=O)N[C@@H](Cc2c[nH]c3ccccc23)C(=O)N[C@@H](CCCNC(=N)N)C(=O)NCC(=O)N[C@@H](CC(=O)O)C(=O)N[C@@H](Cc2ccc(O)cc2)C(=O)N[C@@H](CO)C(=O)N[C@@H](CCCNC(=O)CNN)C(N)=O)cc1`: the ring closure, overall yield in data set [2] (38-membered ring) turned out to be 13.9%. As for `COc1ccc(C(=O)CCC(=O)CCC(=O)NCCC[C@H](NC(=O)[C@H](Cc2ccc(O)cc2)NC(C)=O)C(=O)N[C@@H](CCCNC(=N)N)C(=O)NCC(=O)N[C@@H](CC(=O)O)C(=O)N[C@@H](CCCNC(=O)CNN)C(=O)N[C@@H](CO)C(=O)N[C@@H](Cc2c[nH]c3ccccc23)C(N)=O)cc1`, the ring closure, overall yield in data set [2] (29-membered ring) was found to be 13.5%. As to `CC(=O)CCC(=O)CCC(=O)NCCC[C@H](NC(C)=O)C(=O)N[C@@H](Cc1c[nH]c2ccccc12)C(=O)N[C@@H](CCCNC(=N)N)C(=O)NCC(=O)N[C@@H](CC(=O)O)C(=O)N[C@@H](Cc1ccc(O)cc1)C(=O)N[C@@H](CO)C(=O)N[C@@H](CCCNC(=O)CON)C(N)=O` [Ac-Orn(4,7-dioxooctanoyl)*-W-R-G-D-Y-S-Orn(COCH2ONH2)*-NH2], the ring closure, overall yield in data set [1] (38-membered ring) is 5.2%. In turn, `CC(=O)CCC(=O)CCC(=O)NCCC[C@H](NC(=O)[C@H](Cc1ccc(O)cc1)NC(C)=O)C(=O)N[C@@H](CCCNC(=N)N)C(=O)NCC(=O)N[C@@H](CC(=O)O)C(=O)N[C@@H](CCCNC(=O)CNN)C(=O)N[C@@H](CO)C(=O)N[C@@H](Cc1c[nH]c2ccccc12)C(N)=O` [Ac-Y-Orn(4,7-dioxooctanoyl)*-R-G-D-Orn(COCH2NHNH2)*-S-W-NH2] displayed a ring closure, overall yield in data set [2] (29-membered ring) of 16.8%. As for `CC[C@H](C)[C@H](NC(=O)[C@H](CCC(=O)O)NC(=O)[C@H](CCCNC(=N)N)NC(=O)CNC(=O)[C@H](CCCCN)NC(=O)[C@H](CC(C)C)NC(=O)[C@H](Cc1c[nH]cn1)NC(=O)CNC(=O)[C@@H]1CCCN1C(C)=O)C(=O)NCC(=O)N[C@@H](CC(C)C)C(=O)N[C@@H](Cc1c[nH]c2ccccc12)C(=O)N[C@@H](Cc1ccc(O)cc1)C(=O)N[C@@H](C)C(=O)N[C@@H](CCCNC(=O)CCC(=O)NN)C(=O)N[C@@H](CCCCN)C(=O)N[C@@H](CCC(N)=O)C(=O)NCC(=O)N[C@@H](CCCNC(=O)CCC(=O)CCC(C)=O)C(=O)N[C@@H](CCCCN)C(=O)N[C@@H](CC(N)=O)C(=O)N[C@@H](CCCCN)C(N)=O`, the ring closure, overall yield in data set [1] (31-membered ring) was 8.24%. For `CC(=O)CCC(=O)CCC(=O)NCCC[C@H](NC(C)=O)C(=O)N[C@@H](Cc1c[nH]c2ccccc12)C(=O)N[C@@H](CCCNC(=N)N)C(=O)NCC(=O)N[C@@H](CC(=O)O)C(=O)N[C@@H](Cc1ccc(O)cc1)C(=O)N[C@@H](CO)C(=O)N[C@@H](CCCNC(=O)CCC(=O)NN)C(N)=O`, in data set [1] (40-membered ring), the ring closure, overall yield was determined as 4.3%. In the case of `CC[C@H](C)[C@H](NC(=O)[C@H](CCCNC(=O)CCC(=O)CCC(C)=O)NC(=O)[C@H](CCCNC(=N)N)NC(=O)CNC(=O)[C@H](CCCCN)NC(=O)[C@H](CC(C)C)NC(=O)[C@H](Cc1c[nH]cn1)NC(=O)CNC(=O)[C@@H]1CCCN1C(C)=O)C(=O)NCC(=O)N[C@@H](CC(C)C)C(=O)N[C@@H](Cc1c[nH]c2ccccc12)C(=O)N[C@@H](Cc1ccc(O)cc1)C(=O)N[C@@H](C)C(=O)N[C@@H](CCCNC(=O)CON)C(=O)N[C@@H](CCCCN)C(=O)N[C@@H](CCC(N)=O)C(=O)NCC(=O)N[C@@H](CCC(N)=O)C(=O)N[C@@H](CCCCN)C(=O)N[C@@H](CC(N)=O)C(=O)N[C@@H](CCCCN)C(N)=O`, the ring closure, overall yield in data set [1] (38-membered ring) turned out to be 13.9%. The compound `CC(=O)CCC(=O)CCC(=O)NCCC[C@H](NC(C)=O)C(=O)N[C@@H](Cc1c[nH]c2ccccc12)C(=O)N[C@@H](CCCNC(=N)N)C(=O)NCC(=O)N[C@@H](CC(=O)O)C(=O)N[C@@H](Cc1ccc(O)cc1)C(=O)N[C@@H](CO)C(=O)N[C@@H](CCCNC(=O)CNN)C(N)=O` [Ac-Orn(4,7-dioxooctanoyl)*-W-R-G-D-Y-S-Orn(COCH2NHNH2)*-NH2] displayed a ring closure, overall yield in data set [2] (38-membered ring) of 16.7%. In data set [1] (29-membered ring), `CC[C@H](C)[C@H](NC(=O)[C@H](CCC(=O)O)NC(=O)[C@H](CCCNC(=N)N)NC(=O)CNC(=O)[C@H](CCCCN)NC(=O)[C@H](CC(C)C)NC(=O)[C@H](Cc1c[nH]cn1)NC(=O)CNC(=O)[C@@H]1CCCN1C(C)=O)C(=O)NCC(=O)N[C@@H](CC(C)C)C(=O)N[C@@H](Cc1c[nH]c2ccccc12)C(=O)N[C@@H](Cc1ccc(O)cc1)C(=O)N[C@@H](C)C(=O)N[C@@H](CCCNC(=O)CON)C(=O)N[C@@H](CCCCN)C(=O)N[C@@H](CCC(N)=O)C(=O)NCC(=O)N[C@@H](CCCNC(=O)CCC(=O)CCC(C)=O)C(=O)N[C@@H](CCCCN)C(=O)N[C@@H](CC(N)=O)C(=O)N[C@@H](CCCCN)C(N)=O` showed a ring closure, overall yield of 3.48%. Compound `CC[C@H](C)[C@H](NC(=O)[C@H](CCCNC(=O)CNN)NC(=O)c1ccc(NC(C)=O)cc1)C(=O)N[C@@H](C)C(=O)N[C@@H](C)C(=O)N[C@@H](CC(C)C)C(=O)N[C@@H](CCCCN)C(=O)N[C@@H](CCC(=O)O)C(=O)N[C@@H](CCCCN)C(=O)N[C@H](C(=O)N[C@@H](CCCNC(=O)CNN)C(=O)N[C@@H](C)C(=O)N[C@@H](CC(C)C)C(=O)N[C@@H](CCCCN)C(=O)N[C@@H](CCC(=O)O)C(=O)N[C@@H](CCCCN)C(=O)N[C@H](C(=O)N[C@@H](CCCNC(=O)CCC(=O)CCC(C)=O)C(=O)N[C@@H](C)C(=O)N[C@@H](CC(C)C)C(=O)N[C@@H](CCCCN)C(=O)N[C@@H](CCC(=O)O)C(N)=O)[C@@H](C)CC)[C@@H](C)CC` had a ring closure, overall yield in data set [2] (38-membered ring) of 6.9%.

Consider `CC[C@H](C)[C@H](NC(=O)[C@H](CCCNC(=O)CNN)NC(=O)c1ccc(NC(C)=O)cc1)C(=O)N[C@@H](C)C(=O)N[C@@H](C)C(=O)N[C@@H](CC(C)C)C(=O)N[C@@H](CCCCN)C(=O)N[C@@H](CCC(=O)O)C(=O)N[C@@H](CCCCN)C(=O)N[C@H](C(=O)N[C@@H](CCCNC(=O)CNN)C(=O)N[C@@H](C)C(=O)N[C@@H](CC(C)C)C(=O)N[C@@H](CCCCN)C(=O)N[C@@H](CCCNC(=O)CCC(=O)CCC(C)=O)C(=O)N[C@@H](CCCCN)C(=O)N[C@H](C(=O)N[C@@H](C)C(=O)N[C@@H](C)C(=O)N[C@@H](CC(C)C)C(=O)N[C@@H](CCCCN)C(=O)N[C@@H](CCC(=O)O)C(N)=O)[C@@H](C)CC)[C@@H](C)CC`, for which, in data set [2] (29-membered ring), the ring closure, overall yield came out at 6.2%.

For the compound `CC[C@H](C)[C@H](NC(=O)[C@H](CCC(=O)O)NC(=O)[C@H](CCCNC(=N)N)NC(=O)CNC(=O)[C@H](CCCCN)NC(=O)[C@H](CC(C)C)NC(=O)[C@H](Cc1c[nH]cn1)NC(=O)CNC(=O)[C@@H]1CCCN1C(C)=O)C(=O)NCC(=O)N[C@@H](CC(C)C)C(=O)N[C@@H](Cc1c[nH]c2ccccc12)C(=O)N[C@@H](Cc1ccc(O)cc1)C(=O)N[C@@H](C)C(=O)N[C@@H](CCCNC(=O)CNN)C(=O)N[C@@H](CCCCN)C(=O)N[C@@H](CCC(N)=O)C(=O)NCC(=O)N[C@@H](CCCNC(=O)CCC(=O)CCC(=O)c1ccc(OC)cc1)C(=O)N[C@@H](CCCCN)C(=O)N[C@@H](CC(N)=O)C(=O)N[C@@H](CCCCN)C(N)=O`, the ring closure, overall yield in data set [2] (29-membered ring) was 10.9%.

As to `CC[C@H](C)[C@H](NC(=O)[C@H](CCCNC(=O)CCC(=O)CCC(C)=O)NC(=O)[C@H](CCCNC(=N)N)NC(=O)CNC(=O)[C@H](CCCCN)NC(=O)[C@H](CC(C)C)NC(=O)[C@H](Cc1c[nH]cn1)NC(=O)CNC(=O)[C@@H]1CCCN1C(C)=O)C(=O)NCC(=O)N[C@@H](CC(C)C)C(=O)N[C@@H](Cc1c[nH]c2ccccc12)C(=O)N[C@@H](Cc1ccc(O)cc1)C(=O)N[C@@H](C)C(=O)N[C@@H](CCCNC(=O)CNN)C(=O)N[C@@H](CCCCN)C(=O)N[C@@H](CCC(N)=O)C(=O)NCC(=O)N[C@@H](CCC(N)=O)C(=O)N[C@@H](CCCCN)C(=O)N[C@@H](CC(N)=O)C(=O)N[C@@H](CCCCN)C(N)=O`, the ring closure, overall yield in data set [2] (38-membered ring) came out at 16.8%.

The values are drawn from PMC10510716.
